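Cultured in 96-well plates, cells were exposed to test compound for 48 hours across five concentrations. The concentration for 50% growth inhibition is given as GI50.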 Calls of active or inactive are those of the source. Cut-off read from the data, not from the text of the source: active = GI50 up to about 1.1 µM and inactive = higher.
What was measured:
Assay in all cases: NCI tumour cell line growth inhibition, 48 h
[1] = test system: HL-60
[2] = test system: DU-145
[3] = test system: HOP-62
[4] = test system: OVCAR-3
[5] = test system: RPMI-8226
[6] = test system: NCI-H226
[7] = test system: SK-MEL-2
[8] = test system: OVCAR-5
[9] = test system: 786-0
[10] = test system: SK-MEL-5
[11] = test system: SR
[12] = test system: UO-31
[13] = test system: KM12
[14] = test system: TK-10
[15] = test system: U-251
[16] = test system: OVCAR-8
[17] = test system: MDA-N
[18] = test system: M14
[19] = test system: SK-MEL-28
[20] = test system: ACHN

Measured: GI50

CC(Oc1ccccc1Cl)C(=O)NN1C(=O)CC(=O)N(c2ccc(Cl)cc2)C1=S (stereo not given)
inactive: [1] 3.21 µM | [2] 34.6 µM | [3] 46.3 µM | [4] 38.4 µM | [5] 33.2 µM | [6] 52.8 µM | [7] 27.9 µM | [8] 75.3 µM | [9] 40.8 µM | [10] 36 µM | [11] 8.77 µM | [12] 37.1 µM | [13] 47.6 µM | [14] 54.7 µM | [15] 39.4 µM | [16] 38.8 µM | [17] 37.6 µM | [18] 47.5 µM | [19] 94.6 µM | [20] 37.4 µM

O=[N+]([O-])c1ccc(C2=NOC(c3ccccc3)N2C23CC4CC(CC(C4)C2)C3)cc1 (stereo not given)
inactive: [1] 26.6 µM | [2] 40 µM | [3] 26.5 µM | [4] 23.5 µM | [5] > 10 µM | [6] 30.5 µM | [7] 16.4 µM | [8] 14.4 µM | [9] 17.6 µM | [10] 22.2 µM | [11] > 10 µM | [12] 9.23 µM | [13] 27.4 µM | [14] 37.2 µM | [15] 34.6 µM | [16] 21.5 µM | [17] 26.7 µM | [18] 32.7 µM | [19] 58.5 µM | [20] 20.1 µM

CN(C)NC1=NS(=O)(=O)c2cc3c(=O)n(C)[nH]c3cc2S1
inactive: [1] > 10 µM | [2] > 10 µM | [3] > 10 µM | [4] > 10 µM | [5] > 10 µM | [6] > 10 µM | [7] > 10 µM | [8] > 10 µM | [9] > 10 µM | [10] > 10 µM | [11] > 10 µM | [12] > 10 µM | [13] > 10 µM | [14] > 10 µM | [15] > 10 µM | [16] > 10 µM | [17] > 10 µM | [18] > 10 µM | [19] > 10 µM | [20] > 10 µM

CC(=O)OCC1OC(OC(C)=O)C(Nc2ncc(-c3ccc(C)cc3)s2)C(OC(C)=O)C1OC(C)=O (stereo not given)
inactive: [1] > 10 µM | [2] 31.3 µM | [3] 20.4 µM | [4] 19.3 µM | [5] 12.9 µM | [6] 26.4 µM | [7] 22.6 µM | [8] 43.1 µM | [9] 16.6 µM | [10] 15.8 µM | [11] 26.4 µM | [12] 14.7 µM | [13] > 10 µM | [14] 18.8 µM | [15] 17 µM | [16] 24 µM | [17] 18.4 µM | [18] 18.1 µM | [19] 17.4 µM | [20] 14.6 µM

Nc1ncnc2c1ncn2C1OC(CO)C(O)C(O)C1O (stereo not given)
inactive: [1] > 100 µM | [2] > 100 µM | [3] > 100 µM | [4] > 100 µM | [5] > 100 µM | [6] > 100 µM | [7] > 100 µM | [8] > 100 µM | [9] > 100 µM | [10] > 100 µM | [11] > 100 µM | [12] > 100 µM | [13] > 100 µM | [14] > 100 µM | [15] > 100 µM | [16] > 100 µM | [17] > 100 µM | [18] > 100 µM | [19] > 100 µM | [20] > 100 µM

NC(CC(=O)Nc1cc(C(F)(F)F)ccc1Cl)=NO
inactive: [1] > 100 µM | [2] > 100 µM | [3] > 100 µM | [4] > 100 µM | [5] > 100 µM | [6] > 100 µM | [7] > 100 µM | [8] > 100 µM | [9] > 100 µM | [10] > 100 µM | [11] > 100 µM | [12] > 100 µM | [13] > 100 µM | [14] > 100 µM | [15] > 100 µM | [16] > 100 µM | [17] > 100 µM | [18] > 100 µM | [19] > 100 µM | [20] > 100 µM
